Assays:
Assay in all cases: Histone peptide microarray
Format in all cases: binding, human
[1] = tested on: KDM5A (1); settings: KDM5A (1)
Outline: (§1)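 Mean ± SD of 4 replicate array intensities; GST-PHD finger at 0.5 μM against 293 PTM-bearing histone peptides.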

[2] = tested on: PHRF1 (RP); settings: PHRF1 (RP)
Outline: as §1

[3] = tested on: CHD5 (PCC); settings: CHD5 (PCC)
Outline: as §1

[4] = tested on: BPTF (PB); settings: BPTF (PB)
Outline: as §1

[5] = tested on: ING2
Outline: as §1

[6] = tested on: PHF13
Outline: as §1

[7] = tested on: KDM5A (3); settings: KDM5A (3)
Outline: as §1

[8] = tested on: BAZ2B; settings: BAZ2B
Outline: as §1

[9] = tested on: PHF23
Outline: as §1

[10] = tested on: PHF2
Outline: as §1

[11] = tested on: KDM5B (1); settings: KDM5B (1)
Outline: as §1

[12] = tested on: TRIM66 (PB); settings: TRIM66 (PB)
Outline: as §1

[13] = tested on: SP140L; settings: SP140L
Outline: as §1

[14] = tested on: DIDO1
Outline: as §1

[15] = tested on: ING1
Outline: as §1

[16] = tested on: MLL5
Outline: as §1

[17] = tested on: PHF21A; settings: PHF21A
Outline: as §1

[18] = tested on: ING3
Outline: as §1

[19] = tested on: MORC3 (CW); settings: MORC3 (CW)
Outline: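 Readout is array binding signal, reported as the mean and standard deviation over four replicates. Each purified GST-fused PHD domain was incubated at 0.5 μM with a library of 293 modified histone peptides.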

[20] = tested on: KDM5B (3); settings: KDM5B (3)
Outline: as §1

[21] = tested on: CHD5 (PPCC); settings: CHD5 (PPCC)
Outline: as §1

[22] = tested on: DPF2 (PPC2W2); settings: DPF2 (PPC2W2)
Outline: as §1

[23] = tested on: KDM4C (TTP); settings: KDM4C (TTP)
Outline: as §1

[24] = tested on: TAF3
Outline: as §1

[25] = tested on: ING4
Outline: as §1

[26] = tested on: KDM7A; settings: KDM7A
Outline: as §1

[27] = tested on: ING5
Outline: as §1

[28] = tested on: RAG2
Outline: as §1

[29] = tested on: CHD4 (PPCC); settings: CHD4 (PPCC)
Outline: as §1

[30] = tested on: PHF8
Outline: as §1

[31] = tested on: AIRE (PP); settings: AIRE (PP)
Outline: as §1

[32] = sheet "Array Heatmap", each array performed twice, total n = 4
[33] = GST-tagged, arrays performed twice, n of 4

Substance: H4K5ac + K8ac + K12me1 + K16ac: H4 1-23
- Array Heatmap value (peptide array signal) [1, 32]: 0.525
- Array Heatmap value (peptide array signal) [2, 32]: 0.5035
- Array Heatmap value (peptide array signal) [3, 32]: 0.8246
- Array Heatmap value (peptide array signal) [4, 32]: 0.4205
- Array Heatmap value (peptide array signal) ([5]; ING2, sheet "Array Heatmap", each array performed twice, total n = 4): 0.6062
- Array Heatmap value (peptide array signal) ([6]; PHF13, sheet "Array Heatmap", each array performed twice, total n = 4): 0.7176
- Array Heatmap value (peptide array signal) [7, 32]: 0.4814
- Array Heatmap value (peptide array signal) [8, 32]: 0.5334
- Array Heatmap value (peptide array signal) ([9]; PHF23, sheet "Array Heatmap", each array performed twice, total n = 4): 0.5681
- Array Heatmap value (peptide array signal) ([10]; PHF2, sheet "Array Heatmap", each array performed twice, total n = 4): 0.5943
- Array Heatmap value (peptide array signal) [11, 32]: 0.6517
- Array Heatmap value (peptide array signal) [12, 32]: 0.6523
- Array Heatmap value (peptide array signal) [13, 32]: 0.4016
- Array Heatmap value (peptide array signal) ([14]; DIDO1, sheet "Array Heatmap", each array performed twice, total n = 4): 0.7398
- Array Heatmap value (peptide array signal) ([15]; ING1, sheet "Array Heatmap", each array performed twice, total n = 4): 0.5999
- Array Heatmap value (peptide array signal) ([16]; MLL5, sheet "Array Heatmap", each array performed twice, total n = 4): 0.5904
- Array Heatmap value (peptide array signal) [17, 32]: 0.5148
- Array Heatmap value (peptide array signal) ([18]; ING3, sheet "Array Heatmap", each array performed twice, total n = 4): 0.5746
- Array Heatmap value (peptide array signal) [19, 32]: 0.4079
- Array Heatmap value (peptide array signal) [20, 32]: 0.5615
- Array Heatmap value (peptide array signal) [21, 32]: 0.6457
- Array Heatmap value (peptide array signal) [22, 32]: 0.7404
- Array Heatmap value (peptide array signal) [23, 32]: 0.5546
- Array Heatmap value (peptide array signal) ([24]; TAF3, sheet "Array Heatmap", each array performed twice, total n = 4): 0.2985
- Array Heatmap value (peptide array signal) ([25]; ING4, sheet "Array Heatmap", each array performed twice, total n = 4): 0.538
- Array Heatmap value (peptide array signal) [26, 32]: 0.3906
- Array Heatmap value (peptide array signal) ([27]; ING5, sheet "Array Heatmap", each array performed twice, total n = 4): 0.4233
- Array Heatmap value (peptide array signal) ([28]; RAG2, sheet "Array Heatmap", each array performed twice, total n = 4): 0.2841
- Array Heatmap value (peptide array signal) [29, 32]: 0.628
- Array Heatmap value (peptide array signal) ([30]; PHF8, sheet "Array Heatmap", each array performed twice, total n = 4): 0.3954
- Array Heatmap value (peptide array signal) [31, 32]: 0.4852

Substance: H3K36ac (21-44): H3 21-44
- Array Heatmap value (peptide array binding signal) [1, 33]: 0.4894
- Array Heatmap value (peptide array binding signal) [2, 33]: 0.4519
- Array Heatmap value (peptide array binding signal) [3, 33]: 0.8362
- Array Heatmap value (peptide array binding signal) [4, 33]: 0.3596
- Array Heatmap value (peptide array binding signal) ([5]; ING2, GST-tagged, arrays performed twice, n of 4): 0.6078
- Array Heatmap value (peptide array binding signal) ([6]; PHF13, GST-tagged, arrays performed twice, n of 4): 0.6346
- Array Heatmap value (peptide array binding signal) [7, 33]: 0.4289
- Array Heatmap value (peptide array binding signal) [8, 33]: 0.4745
- Array Heatmap value (peptide array binding signal) ([9]; PHF23, GST-tagged, arrays performed twice, n of 4): 0.5388
- Array Heatmap value (peptide array binding signal) ([10]; PHF2, GST-tagged, arrays performed twice, n of 4): 0.5459
- Array Heatmap value (peptide array binding signal) [11, 33]: 0.6899
- Array Heatmap value (peptide array binding signal) [12, 33]: 0.6317
- Array Heatmap value (peptide array binding signal) [13, 33]: 0.3554
- Array Heatmap value (peptide array binding signal) ([14]; DIDO1, GST-tagged, arrays performed twice, n of 4): 0.7412
- Array Heatmap value (peptide array binding signal) ([15]; ING1, GST-tagged, arrays performed twice, n of 4): 0.5601
- Array Heatmap value (peptide array binding signal) ([16]; MLL5, GST-tagged, arrays performed twice, n of 4): 0.5602
- Array Heatmap value (peptide array binding signal) [17, 33]: 0.4731
- Array Heatmap value (peptide array binding signal) ([18]; ING3, GST-tagged, arrays performed twice, n of 4): 0.4959
- Array Heatmap value (peptide array binding signal) [19, 33]: 0.3556
- Array Heatmap value (peptide array binding signal) [20, 33]: 0.4828
- Array Heatmap value (peptide array binding signal) [21, 33]: 0.5645
- Array Heatmap value (peptide array binding signal) [22, 33]: 0.7036
- Array Heatmap value (peptide array binding signal) [23, 33]: 0.4961
- Array Heatmap value (peptide array binding signal) ([24]; TAF3, GST-tagged, arrays performed twice, n of 4): 0.2714
- Array Heatmap value (peptide array binding signal) ([25]; ING4, GST-tagged, arrays performed twice, n of 4): 0.4623
- Array Heatmap value (peptide array binding signal) [26, 33]: 0.3751
- Array Heatmap value (peptide array binding signal) ([27]; ING5, GST-tagged, arrays performed twice, n of 4): 0.3615
- Array Heatmap value (peptide array binding signal) ([28]; RAG2, GST-tagged, arrays performed twice, n of 4): 0.2439
- Array Heatmap value (peptide array binding signal) [29, 33]: 0.5911
- Array Heatmap value (peptide array binding signal) ([30]; PHF8, GST-tagged, arrays performed twice, n of 4): 0.3497
- Array Heatmap value (peptide array binding signal) [31, 33]: 0.4538
